The text below walks through data of publication PMC12074421, “Development and Characterization of pFluor50, a Fluorogenic-Based Kinetic Assay System for High-Throughput Inhibition Screening and Characterization of Time-Dependent Inhibition and Inhibition Type for Six Human CYPs” (Molecules, 2025).

In data set [1] the target is T1, CYP2B6 (Homo sapiens, UniProt P20813).
T1 sequence (P20813 1-491): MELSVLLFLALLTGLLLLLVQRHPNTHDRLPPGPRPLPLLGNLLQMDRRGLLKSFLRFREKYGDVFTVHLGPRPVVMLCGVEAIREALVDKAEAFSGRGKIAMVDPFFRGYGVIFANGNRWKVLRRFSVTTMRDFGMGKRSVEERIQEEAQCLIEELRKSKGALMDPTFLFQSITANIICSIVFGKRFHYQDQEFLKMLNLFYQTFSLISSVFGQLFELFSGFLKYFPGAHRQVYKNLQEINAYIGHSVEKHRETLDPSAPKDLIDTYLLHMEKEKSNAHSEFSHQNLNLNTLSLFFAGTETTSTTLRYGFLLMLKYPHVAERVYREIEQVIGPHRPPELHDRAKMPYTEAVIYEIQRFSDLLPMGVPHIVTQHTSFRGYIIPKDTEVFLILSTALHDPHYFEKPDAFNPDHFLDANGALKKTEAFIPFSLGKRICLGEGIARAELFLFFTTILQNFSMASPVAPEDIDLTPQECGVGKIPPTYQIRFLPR
Also on record: purchased Sigma Aldrich (CYPexpress, Oxford Biomedical Research, Inc.) MTOXCE2B6; method as in PMID 17433521, PMID 9732386. The settings on record: read-out: Literature KM (converted), cited from earlier work.

For data set [2], the target named is T1, CYP2B6. The experiment in a line: pFluor50 Michaelis–Menten kinetics, CYP2B6 with Bzres. The format is in vitro ADME. Set-up: purchased Sigma Aldrich (CYPexpress, Oxford Biomedical Research, Inc.) MTOXCE2B6. The protocol:
(§1) In general, the protocol for determination of the Michaelis–Menten kinetic parameters (KM and Vmax) involved addition of the appropriate master mix to phosphate buffer followed by addition of the appropriate amount of enzyme to the mix. The master mix was determined for each specific CPY450 based on empirical methods involving each reagent to obtain a linear range of enzyme activity. A total of 30 µL of this enzyme mix was then added to each well of the 384-well plate. Next, initial background readings were taken for 5 min, after which the appropriate amount of substrate was dispensed into each well using the onboard reagent dispenser of the plate reader. All plates contained one blank well without enzyme (only master mix) for each substrate concentration. […] Table 1 provides the formulation of the master mix for each CYP, the kinetic read time with substrate, the read time interval, the concentration range of the substrate used for the Michaelis–Menten kinetics, the Ex and Em wavelengths, and the concentration of substrate for inhibition/activation screening. Table S1 details the specific parameters used for the plate reader for each CYP–substrate pair.
For determining the Michaelis–Menten kinetic parameters (KM and Vmax) for each CYP–substrate pair, kinetic studies were performed in which a range of different concentrations of the substrate were used. Table 1 details the formulations for the master mix, CYPexpress^TM concentrations, and concentration ranges of each specific substrate. For each CYP–substrate pair, plate reader parameters were set up as described in Table S1. The protocol used for Michaelis–Menten kinetics was similar for all the CYPs. Briefly, the working solution was prepared for each substrate and then primed into one of the dispensers on the plate reader. The other dispenser was primed with the buffer solution. 1.5 mL of phosphate buffer solution (pH 7.4) was used to prepare the master mix with the appropriate concentration of each reagent as specified in Table 1 (NADPH, NADP+, G6P, G6PDH, and/or MgCl2). The amount of CYPexpress reagent in units/(mg/mL) was determined for each enzyme as new lots may have slightly different activities, and the activity of the reagent may change over time. The appropriate mass of each CYPexpress^TM reagent needed to obtain the required units was measured using an analytical balance and was transferred to the master mix solution. This solution was mixed, and 30 µL of the solution was added to each well using a multichannel pipette. In each case, a blank control well was also included, as described in Figure S1. The plate was then transferred to the plate reader and readings were taken at the time intervals, for the appropriate length of time, and at the appropriate wavelengths as specified in Table 1.
Calibration curves were constructed using the determined plate reader settings (Figure S3) and concentrations of the products formed to allow for the calculation of product formation rates based on the observed fluorescence. For these calculations, we presumed that the total increase in observed fluorescence over time was due only to product formation. Calibration curves were generated with 6 different concentrations of the products (fluorescein and resorufin), which spanned the relative fluorescence units (RFU) observed during the kinetic experiments. This allowed for the calculation of product concentrations from the observed RFU, enabling the calculation of the product formation rates. Unfortunately, fluorescein benzyl ester (the product formed from the metabolism of dibenzyl fluorescein) is not commercially available. Therefore, the exact rate of formation could not be determined, and the Vmax for CYP3A4 cleavage of dibenzyl fluorescein has been reported as the rate of change in relative fluorescence units (RFUs) per minute.

The target in data set [3] is T2, CYP3A4 (Homo sapiens, UniProt P08684). Also on record: purchased Sigma Aldrich (CYPexpress, Oxford Biomedical Research, Inc.) MTOXCE3A4. The settings on record: read-out: Literature IC50 (converted), cited from earlier work.
For data set [4], the target named is T2, CYP3A4. The experiment in a line: pFluor50 fluorogenic CYP3A4 inhibition (IC50, time dependence).
The target in data set [5] is T2, CYP3A4. In words: pFluor50 Michaelis–Menten kinetics, CYP3A4 with DBF. It counts as in vitro ADME. Set-up: purchased Sigma Aldrich (CYPexpress, Oxford Biomedical Research, Inc.) MTOXCE3A4. As for the experimental part: as §1
For determining the Michaelis–Menten kinetic parameters (KM and Vmax) for each CYP–substrate pair, kinetic studies were performed in which a range of different concentrations of the substrate were used. Table 1 details the formulations for the master mix, CYPexpress^TM concentrations, and concentration ranges of each specific substrate. For each CYP–substrate pair, plate reader parameters were set up as described in Table S1. […] Briefly, the working solution was prepared for each substrate and then primed into one of the dispensers on the plate reader. […] The amount of CYPexpress reagent in units/(mg/mL) was determined for each enzyme as new lots may have slightly different activities, and the activity of the reagent may change over time. The appropriate mass of each CYPexpress^TM reagent needed to obtain the required units was measured using an analytical balance and was transferred to the master mix solution. […]

Data set [6] concerns the target T2, CYP3A4. Also on record: purchased Sigma Aldrich (CYPexpress, Oxford Biomedical Research, Inc.) MTOXCE3A4; method as in PMID 11095581, PMID 22252407. The settings on record: read-out: Literature KM (converted); cited from earlier work.
Data set [7] addresses T3, CYP2D6 (Homo sapiens, UniProt P10635). The experiment in a line: pFluor50 fluorogenic CYP2D6 inhibition (IC50, time dependence). The settings on record: 30 µM inhibitor, pre-incubation between 5 and 30 min.
Data set [8] has as its target T1, CYP2B6. The experiment in a line: biochemical.
Experimental: (§2) Therefore, the pre-incubation time between the inhibitor and the CYP was first optimized prior to the full IC50 determinations. […] Therefore, a 10 min pre-incubation time was selected for convenience. […] Therefore, the sertraline pre-incubation time for the inhibition assay was optimized to 30 min (the time at which inhibition was no longer time-dependent).
In data set [9] the target is T3, CYP2D6. Also on record: purchased Sigma Aldrich (CYPexpress, Oxford Biomedical Research, Inc.) MTOXCE2D6. The settings on record: CYP2D6, Bufuralol/LC-MS/MS; read-out: Literature IC50 (converted); cited from earlier work.
Data set [10] deals with T3, CYP2D6. In words: biochemical.
Data set [11] concerns the target T1, CYP2B6. Also on record: purchased Sigma Aldrich (CYPexpress, Oxford Biomedical Research, Inc.) MTOXCE2B6. The settings on record: read-out: Literature IC50 (converted), cited from earlier work.
The target in data set [12] is T1, CYP2B6. In words: pFluor50 fluorogenic CYP2B6 inhibition (IC50, time dependence). The settings on record: 30 µM inhibitor, pre-incubation between 5 and 30 min.
Experimental: as §2
The target of data set [13] is CYP2C9 (Homo sapiens, UniProt P11712). The note with it: substrate Eres, model comparison by Akaike's Information Criterion.

“And” between values parts separate entries of the source, which are not always exact repeats. Equal entries are not always repeated. “Also recorded” adds a separate entry of the source. Structures can show the parent of a compound that is named as a salt. Where two headings read alike, the source gives them in different places.

T3 sequence (P10635 whole entry): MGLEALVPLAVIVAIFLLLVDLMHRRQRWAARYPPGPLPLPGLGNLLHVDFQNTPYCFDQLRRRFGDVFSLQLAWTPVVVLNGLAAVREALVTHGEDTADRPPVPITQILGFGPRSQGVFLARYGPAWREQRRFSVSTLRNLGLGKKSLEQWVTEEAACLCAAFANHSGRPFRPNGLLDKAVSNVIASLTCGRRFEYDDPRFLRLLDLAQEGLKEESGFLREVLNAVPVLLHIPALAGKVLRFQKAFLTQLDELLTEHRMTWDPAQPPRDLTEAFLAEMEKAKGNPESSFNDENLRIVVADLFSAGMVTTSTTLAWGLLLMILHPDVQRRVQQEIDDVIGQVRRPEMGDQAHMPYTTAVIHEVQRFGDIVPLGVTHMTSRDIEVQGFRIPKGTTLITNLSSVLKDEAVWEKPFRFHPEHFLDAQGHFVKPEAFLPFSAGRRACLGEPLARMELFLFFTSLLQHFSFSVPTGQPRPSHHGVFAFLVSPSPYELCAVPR
T2 sequence (P08684 2-503 limits assumed): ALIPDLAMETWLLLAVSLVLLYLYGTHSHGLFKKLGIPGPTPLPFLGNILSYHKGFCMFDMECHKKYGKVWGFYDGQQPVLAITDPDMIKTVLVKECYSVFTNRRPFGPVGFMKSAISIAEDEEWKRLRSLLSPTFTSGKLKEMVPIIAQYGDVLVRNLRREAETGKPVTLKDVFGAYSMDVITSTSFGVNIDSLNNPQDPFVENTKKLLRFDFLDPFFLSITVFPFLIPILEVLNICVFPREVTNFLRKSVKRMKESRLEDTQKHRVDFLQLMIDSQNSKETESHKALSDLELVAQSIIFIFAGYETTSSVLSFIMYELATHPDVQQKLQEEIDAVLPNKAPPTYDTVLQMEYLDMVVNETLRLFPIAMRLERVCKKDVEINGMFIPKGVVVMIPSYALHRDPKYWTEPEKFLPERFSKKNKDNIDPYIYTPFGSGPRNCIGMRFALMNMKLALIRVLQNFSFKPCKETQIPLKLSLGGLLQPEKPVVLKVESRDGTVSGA
Sequence of CYP2C9 (P11712 whole entry): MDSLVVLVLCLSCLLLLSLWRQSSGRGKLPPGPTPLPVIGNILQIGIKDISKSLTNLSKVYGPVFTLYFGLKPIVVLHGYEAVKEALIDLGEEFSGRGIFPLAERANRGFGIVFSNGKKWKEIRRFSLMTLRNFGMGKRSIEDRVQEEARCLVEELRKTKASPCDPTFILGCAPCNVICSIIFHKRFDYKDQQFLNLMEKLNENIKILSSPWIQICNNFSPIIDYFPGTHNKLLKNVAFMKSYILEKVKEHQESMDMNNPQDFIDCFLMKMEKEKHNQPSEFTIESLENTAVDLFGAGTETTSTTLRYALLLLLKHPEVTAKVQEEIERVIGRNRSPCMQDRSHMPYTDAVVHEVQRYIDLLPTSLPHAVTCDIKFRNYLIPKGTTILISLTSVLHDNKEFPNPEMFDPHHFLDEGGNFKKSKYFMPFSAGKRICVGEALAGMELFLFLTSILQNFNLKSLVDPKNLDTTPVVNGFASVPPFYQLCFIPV

`O=c1ccc2nc3ccc(OCc4ccccc4)cc3oc-2c1` [Bzres, 7-(benzyloxy)-3H-phenoxazin-3-one]: the Km in data set [1] (CYP2B6, human Bl cell) is 1.3 µM; in data set [1] (CYP2B6), 34 ± 10.4 µM; in data set [2] (CYP2B6 1 mg/mL, three biological replicates, read-out: Average KM), 40.6 ± 19.6 µM; in data set [2] (human, CYPexpress CYP2B6 enzyme reagent, pH 7.4, CYP2B6 1 mg/mL, three biological replicates, read-out: Average KM), 40.6 ± 19.6 µM; in data set [2] (human, CYPexpress CYP2B6 enzyme reagent, pH 7.4, CYP2B6, biological repeat 1, read-out: KM – repeat 1) it was 33 µM; in data set [2] (human, CYPexpress CYP2B6 enzyme reagent, pH 7.4, CYP2B6, biological repeat 2, read-out: KM – repeat 2), 25.9 µM. For the same compound, in [2] (human, CYPexpress CYP2B6 enzyme reagent, pH 7.4, CYP2B6, biological repeat 3, read-out: KM – repeat 3), the Michaelis-Menten constant (Km) is 62.9 µM. For the same compound, the “Average Vmax” value in data set [2] (CYP2B6 1 mg/mL, rate of product formation) stood at 0.33 ± 0.1 nmol/min; in data set [2] (CYP2B6, Table S3), 0.3343 ± 0.1111 nmol/min. The “Vmax – repeat 1” value in [2] (CYP2B6, biological repeat 1) is listed as 276.3 pmol/min. The “Vmax – repeat 2” value in data set [2] (CYP2B6, biological repeat 2) is recorded as 264.2 pmol/min. In addition, in data set [2] (CYP2B6, biological repeat 3), the “Vmax – repeat 3” value is 462.4 pmol/min.

For `Cc1ccc(-c2c(-c3nn(C)c4ncnc(N5CC[C@H](N6CCCCC6)C5)c34)cnn2C)cc1` [CYP3cide], the IC50 was 300 ± 20 nM in data set [3] (CYP3A4, Midazolam/LC-MS/MS); 690 nM in [3] (CYP3A4, Testosterone/LC-MS/MS); 126 ± 66.2 nM in [4] (read-out: Average IC50, CYP3A4, DBF 4 µM, 5 min pre-incubation, DMSO 0.5%); 108 nM in data set [4] (read-out: IC50 (nM)– repeat 1, CYP3A4, biological repeat 1); 200 nM in [4] (read-out: IC50 (nM)– repeat 2, CYP3A4, biological repeat 2); 70.8 nM in [4] (read-out: IC50 (nM)– repeat 3, CYP3A4, biological repeat 3). For the same compound, the “Time dependence of CYP3A4 inhibition” value in [4] (0.05 µM inhibitor, pre-incubation between 5 and 30 min) is “time-dependent manner; also recorded: increase with time”.

As for `O=C(OCc1ccccc1)c1ccccc1-c1c2ccc(=O)cc-2oc2cc(OCc3ccccc3)ccc12` [DBF, benzyl 2-(6-(benzyloxy)-3-oxo-3H-xanthen-9-yl)benzoate], the “Vmax – repeat 1” value in data set [5] (CYP3A4, biological repeat 1) turned out to be 92.28 RFU/min. Besides, the “Vmax – repeat 2” value in data set [5] (CYP3A4, biological repeat 2) was determined as 104.6 RFU/min. The “Vmax – repeat 3” value in data set [5] (CYP3A4, biological repeat 3) is 76.71 RFU/min. The Michaelis-Menten constant (Km) in data set [6] is 0.87 µM and 1.37 µM.

As to `CN[C@H]1CC[C@@H](c2ccc(Cl)c(Cl)c2)c2ccccc21` [Sertraline, sertraline hydrochloride], in data set [7], the “Time dependence of CYP2D6 inhibition” value is reported as “time-dependent manner; also recorded: increase in inhibition with time”. Moreover, the IC50 is 385 nM and 1390 nM and 477 nM and 752 nM in [8]; 2000 nM in [9]; 5790 nM and 3220 nM and 4240 nM and 4420 nM in [10]; 200 ± 24 nM in data set [11] (CYP2B6, Bupropion/LC-MS/MS, ref 52); 1430 nM in data set [11] (CYP2B6, Bupropion/LC-MS/MS, ref 54); 3200 nM in data set [11] (CYP2B6, HLM, Bupropion/LC-MS/MS). In addition, the “Time dependence of CYP2B6 inhibition” value in [12] is listed as “increases with time; also recorded: time-dependent manner”.

Turning to `Nc1ccc(S(=O)(=O)Nc2ccnn2-c2ccccc2)cc1` [Sulfaphenazole, sulfaphenazole], in [13], the “Type of inhibition of CYP2C9” value is “competitive inhibition”.
